From ChEMBL document CHEMBL1149970, “Novel dithiocarbamate carbapenems1 with anti-MRSA activity” (Bioorg Med Chem Lett, 1997)
≈ marks a conversion by molar mass, not a printed value.

Legend:
[1] = Compound was measured for binding rate for human serum at a carbapenem concentration of 10 ug/mL; type: ADME; details: read-out: Protein binding (converted)
Staphylococcus aureus [2] = test: In vitro antibacterial activity against staphylococcus aureus 209P NIHJ JC1 organism; type: functional
[3] = test system: Staphylococcus epidermidis; test: In vitro antibacterial activity against Staphylococcus epidermidis MB5181a organism; type: functional
Staphylococcus aureus [4] = test: Compound was tested in vitro for its anti-methicillin-resistant staphylococcus aureus(MRSA); 3.13-12.5; type: functional
[5] = target: T1, Dipeptidase 1 (Sus scrofa) (UniProt P22412); test: Relative rate of hydrolysis of porcine renal dehydropeptidase-I (DHP-I) to imipenem; type: functional
T1 sequence (whole entry): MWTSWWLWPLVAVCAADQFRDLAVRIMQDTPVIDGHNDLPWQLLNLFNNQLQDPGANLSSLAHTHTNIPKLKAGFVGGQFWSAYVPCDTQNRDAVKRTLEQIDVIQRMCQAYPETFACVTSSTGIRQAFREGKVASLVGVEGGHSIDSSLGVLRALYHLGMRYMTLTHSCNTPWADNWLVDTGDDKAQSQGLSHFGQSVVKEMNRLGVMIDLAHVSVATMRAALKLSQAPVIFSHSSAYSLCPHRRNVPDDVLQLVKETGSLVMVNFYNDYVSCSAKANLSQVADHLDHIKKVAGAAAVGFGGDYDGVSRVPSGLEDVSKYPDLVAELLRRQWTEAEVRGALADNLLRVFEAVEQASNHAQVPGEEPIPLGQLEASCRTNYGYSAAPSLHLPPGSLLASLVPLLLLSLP

Staphylococcus aureus [6] = test: In vitro antibacterial activity against staphylococcus aureus BB6294 organism (Methicillin-resistant strain); type: functional
Rattus norvegicus [7] = test: Epileptogenicity of compound was measured at 100 ug/rat head by the rat intraventricular assay; 3/5; type: functional
Mus musculus = species: Mus musculus; test: Compound was measured for binding rate for mouse serum at a carbapenem concentration of 10 ug/mL; type: functional
Pseudomonas aeruginosa = test: In vitro antibacterial activity against Pseudomonas aeruginosa MB5002 organism; type: functional
Enterococcus faecalis = test: In vitro antibacterial activity against Enterococcus faecalis MB4996 organism; type: functional
[8] = target: T1, Dipeptidase 1 (Sus scrofa); test: Compound was measured for DHP-I susceptibility; type: functional
Staphylococcus aureus [9] = test: In vitro antibacterial activity against staphylococcus aureus CSa1009 (Methicillin-resistant strain and b beta-Lactamase producing strain); type: functional
Staphylococcus aureus [10] = test: Compound was tested in vivo for its anti-methicillin-resistant staphylococcus aureus(MRSA); type: functional
Escherichia coli = test: In vitro antibacterial activity against Escherichia coli NIHJ JC2 organism; type: functional
Staphylococcus aureus [11] = test: Compound was tested in vitro for its anti-methicillin-resistant staphylococcus aureus(MRSA); 3.13-6.25; type: functional
[12] = PBP-2'' affinity was determined by the competition assay with [14C]benzylpenicillin using membrane isolated from MRSA BB6294 strain; type: functional, Staphylococcus aureus
Rattus norvegicus [13] = test: Epileptogenicity of compound was measured at 100 ug/rat head by the rat intraventricular assay; 1/5; type: functional
Rattus norvegicus [14] = test: Epileptogenicity of compound was measured at 100 ug/rat head by the rat intraventricular assay; 0/5; type: functional, Cerebral ventricle
[15] = Staphylococcus epidermidis, read-out: MIC

Structure (SMILES)	fraction unbound at 10 ug/mL [1]	MIC (Staphylococcus aureus [2])	MIC [3, 15]	MIC (Staphylococcus aureus [4])	DHP-I susceptibility [5]	MIC (Staphylococcus aureus [6])	Epileptogenicity (Rattus norvegicus [7])	PPB (Mus musculus)	MIC (Pseudomonas aeruginosa)	MIC (Enterococcus faecalis)	DHP-I susceptibility [8]	MIC (Staphylococcus aureus [9])	ED50 (Staphylococcus aureus [10])	MIC (Escherichia coli)	MIC (Staphylococcus aureus [11])	IC50 [12]	Epileptogenicity (Rattus norvegicus [13])	MIC [3]	Epileptogenicity (Rattus norvegicus [14])
C[C@@H](O)[C@H]1C(=O)N2C(C(=O)[O-])=C(SC(=S)N3CC[N+](C)(Cc4ccccc4)CC3)[C@H](C)[C@H]12	0.4	< 0.006 µg/mL	1.56 µg/mL (≈ 3.28 µM)	5.36 µg/mL (≈ 11.3 µM)	0.15	3.13 µg/mL (≈ 6.58 µM)	3	82%	> 25 µg/mL	1.56 µg/mL (≈ 3.28 µM)	0.15	6.25 µg/mL (≈ 13.1 µM)	10 mg/kg	1.56 µg/mL (≈ 3.28 µM)	–	–	–	–	–
C[C@@H](O)[C@H]1C(=O)N2C(C(=O)O)=C(SC(=S)N3CC(O)C3)[C@H](C)[C@H]12	–	0.025 µg/mL (≈ 0.0697 µM)	3.13 µg/mL (≈ 8.73 µM)	–	2.32	6.25 µg/mL (≈ 17.4 µM)	–	–	> 25 µg/mL	12.5 µg/mL (≈ 34.9 µM)	–	6.25 µg/mL (≈ 17.4 µM)	–	0.78 µg/mL (≈ 2.18 µM)	–	–	–	–	–
C[C@@H](O)[C@H]1C(=O)N2C(C(=O)O)=C(SC(=S)N3CCCC3)[C@H](C)[C@H]12	0.06	0.012 µg/mL (≈ 0.0337 µM)	3.13 µg/mL (≈ 8.78 µM)	–	3.18	3.13 µg/mL (≈ 8.78 µM)	–	95%	> 25 µg/mL	12.5 µg/mL (≈ 35.1 µM)	3.18	6.25 µg/mL (≈ 17.5 µM)	6.24 mg/kg	6.25 µg/mL (≈ 17.5 µM)	4.04 µg/mL (≈ 11.3 µM)	5.6 µg/mL (≈ 15.7 µM)	1	–	–
C[C@@H](O)[C@H]1C(=O)N2C(C(=O)O)=C(SC(=S)N3CCC(O)CC3)[C@H](C)[C@H]12	–	0.025 µg/mL (≈ 0.0647 µM)	6.25 µg/mL (≈ 16.2 µM)	–	2.23	6.25 µg/mL (≈ 16.2 µM)	–	–	> 25 µg/mL	6.25 µg/mL (≈ 16.2 µM)	–	6.25 µg/mL (≈ 16.2 µM)	–	3.13 µg/mL (≈ 8.1 µM)	–	–	–	–	–
C=CCN(CCCO)C(=S)SC1=C(C(=O)O)N2C(=O)[C@H]([C@@H](C)O)[C@H]2[C@H]1C	–	0.025 µg/mL (≈ 0.0624 µM)	–	–	1.39	3.13 µg/mL (≈ 7.81 µM)	–	–	> 25 µg/mL	6.25 µg/mL (≈ 15.6 µM)	–	3.13 µg/mL (≈ 7.81 µM)	–	12.5 µg/mL (≈ 31.2 µM)	–	–	–	3.13 pug ml-1	–
C[C@@H](O)[C@H]1C(=O)N2C(C(=O)O)=C(SC(=S)N3CCC(O)C3)[C@H](C)[C@H]12 (stereo partly specified)	–	0.025 µg/mL (≈ 0.0671 µM)	3.13 µg/mL (≈ 8.4 µM)	–	2.21	6.25 µg/mL (≈ 16.8 µM)	–	–	> 25 µg/mL	6.25 µg/mL (≈ 16.8 µM)	–	6.25 µg/mL (≈ 16.8 µM)	–	0.78 µg/mL (≈ 2.09 µM)	–	–	–	–	–
C[C@@H](O)[C@H]1C(=O)N2C(C(=O)O)=C(SC(=S)N(C)C)[C@H](C)[C@H]12	0.12	0.012 µg/mL (≈ 0.0363 µM)	6.25 µg/mL (≈ 18.9 µM)	–	2.12	3.13 µg/mL (≈ 9.47 µM)	–	69%	25 µg/mL (≈ 75.7 µM)	12.5 µg/mL (≈ 37.8 µM)	2.12	6.25 µg/mL (≈ 18.9 µM)	5.91 mg/kg	6.25 µg/mL (≈ 18.9 µM)	4.59 µg/mL (≈ 13.9 µM)	9.6 µg/mL (≈ 29.1 µM)	–	–	0
CCCN(C)C(=S)SC1=C(C(=O)O)N2C(=O)[C@H]([C@@H](C)O)[C@H]2[C@H]1C	–	0.025 µg/mL (≈ 0.0697 µM)	3.13 µg/mL (≈ 8.73 µM)	–	2.71	3.13 µg/mL (≈ 8.73 µM)	–	–	25 µg/mL (≈ 69.7 µM)	6.25 µg/mL (≈ 17.4 µM)	–	3.13 µg/mL (≈ 8.73 µM)	–	25 µg/mL (≈ 69.7 µM)	–	–	–	–	–
C[C@@H](O)[C@H]1C(=O)N2C(C(=O)[O-])=C(SC(=S)N3CC[N+](C)(C)CC3)[C@H](C)[C@H]12	–	0.012 µg/mL (≈ 0.03 µM)	3.13 µg/mL (≈ 7.83 µM)	–	0.11	3.13 µg/mL (≈ 7.83 µM)	–	–	> 25 µg/mL	1.56 µg/mL (≈ 3.9 µM)	–	12.5 µg/mL (≈ 31.3 µM)	–	0.1 µg/mL (≈ 0.25 µM)	–	–	–	–	–
C[C@@H](O)[C@H]1C(=O)N2C(C(=O)O)=C(SC(=S)N3CCCCCC3)[C@H](C)[C@H]12	–	0.012 µg/mL (≈ 0.0312 µM)	1.56 µg/mL (≈ 4.06 µM)	–	3.09	1.56 µg/mL (≈ 4.06 µM)	–	–	> 25 µg/mL	6.25 µg/mL (≈ 16.3 µM)	–	1.56 µg/mL (≈ 4.06 µM)	–	> 25 µg/mL	–	–	–	–	–
C[C@@H](O)[C@H]1C(=O)N2C(C(=O)O)=C(SC(=S)N(C)c3ccccc3)[C@H](C)[C@H]12	–	0.05 µg/mL (≈ 0.127 µM)	1.56 µg/mL (≈ 3.97 µM)	–	2.29	1.56 µg/mL (≈ 3.97 µM)	–	–	> 25 µg/mL	6.25 µg/mL (≈ 15.9 µM)	–	3.13 µg/mL (≈ 7.97 µM)	–	> 25 µg/mL	–	–	–	–	–
C[C@@H](O)[C@H]1C(=O)N2C(C(=O)O)=C(SC(=S)N3CCN(C)CC3)[C@H](C)[C@H]12	–	0.025 µg/mL (≈ 0.0648 µM)	3.13 µg/mL (≈ 8.12 µM)	–	1.53	3.13 µg/mL (≈ 8.12 µM)	–	–	> 25 µg/mL	6.25 µg/mL (≈ 16.2 µM)	–	6.25 µg/mL (≈ 16.2 µM)	–	1.56 µg/mL (≈ 4.05 µM)	–	–	–	–	–
